From patent publication US6737383B1, “Herbicidal oxadiazolidines” (priority 1999, dated 2004)

How the values were obtained:
blackgrass = test: Test B pre/postemergence blackgrass; format: in vivo, Alopecurus myosuroides
How it was run: (§1)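 Test chemicals in a non-phytotoxic solvent mixture with surfactant were sprayed preemergence onto planted seeds and postemergence onto plants 2 to 18 cm tall (1- to 4-leaf stage). After twelve to sixteen days in a greenhouse, injury was visually rated against untreated controls from 0 (no effect) to 10 (complete control).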

wild oat = test: Test B pre/postemergence wild oat; format: in vivo, Avena fatua
How it was run: as §1

bedstraw = test: Test B pre/postemergence bedstraw; format: in vivo, Galium aparine; settings: for Plant response rating, Bedstraw: Rate 62 g/ha, scale of 0 to 10 where 0 is no effect and 10 is complete control
How it was run: as §1

soybean = test: Test B pre/postemergence soybean; format: in vivo, Glycine max
How it was run: as §1

crabgrass = test: Test B pre/postemergence crabgrass; format: in vivo, Digitaria sanguinalis
How it was run: as §1

cocklebur = test: Test B pre/postemergence cocklebur; format: in vivo, Xanthium strumarium
How it was run: as §1

corn = test: Test B pre/postemergence corn; format: in vivo, Zea mays
How it was run: as §1

purple nutsedge = test: Test B pre/postemergence purple nutsedge; format: in vivo, Cyperus rotundus
How it was run: as §1

velvetleaf = test: Test B pre/postemergence velvetleaf; format: in vivo, Abutilon theophrasti
How it was run: as §1

surinam grass = test: Test B pre/postemergence surinam grass; format: in vivo, Brachiaria decumbens
How it was run: as §1

wheat = test: Test B pre/postemergence wheat; format: in vivo, Triticum aestivum
How it was run: as §1

morningglory = test: Test B pre/postemergence morningglory; format: in vivo, Ipomoea hederacea
How it was run: as §1

giant foxtail = test: Test B pre/postemergence giant foxtail; format: in vivo, Setaria faberii
How it was run: as §1

sugar beet = test: Test B pre/postemergence sugar beet; format: in vivo, Beta vulgaris
How it was run: as §1

pigweed = test: Test B pre/postemergence pigweed; format: in vivo, Amaranthus retroflexus
How it was run: as §1

rape = test: Test B pre/postemergence rape; format: in vivo, Brassica napus
How it was run: as §1

[1] = Postemergence, Rate 62 g/ha, scale of 0 to 10, 0 is no effect, 10 is complete control
[2] = Postemergence, Rate 125 g/ha, scale 0 to 10, 0 is no effect, 10 is complete control
[3] = Postemergence, Rate 250 g/ha, scale 0 to 10
[4] = Postemergence, Rate 500 g/ha, scale 0 to 10, 0 is no effect, 10 is complete control
[5] = Preemergence, Rate 62 g/ha, scale of 0 to 10 where 0 is no effect and 10 is complete control
[6] = Preemergence, Rate 125 g/ha, scale 0 to 10, 0 is no effect, 10 is complete control
[7] = Preemergence, Rate 250 g/ha, scale 0 to 10, 0 is no effect, 10 is complete control
[8] = Preemergence, Rate 500 g/ha, scale of 0 to 10 where 0 is no effect and 10 is complete control
[9] = Preemergence, Rate 500 g/ha, scale 0 to 10, 0 is no effect, 10 is complete control

## CC(C)N(C(=O)n1oc(=O)n(CCCF)c1=O)c1ccc(F)cc1F [Compound 500]
blackgrass; [1]
  Blackgrass plant response rating: 3
blackgrass; [2]
  Blackgrass plant response rating: 4
blackgrass; [3]
  Blackgrass plant response rating: 6
blackgrass; [4]
  Plant response rating, Blackgrass: 6
blackgrass; [5]
  Plant response rating, Blackgrass: 9
blackgrass; [6]
  Blackgrass plant response rating: 9
blackgrass; [7]
  Blackgrass plant response rating: 10
blackgrass; [8]
  Blackgrass plant response rating: 10
Wild oat; [1]
  Wild oats plant response rating: 0
Wild oat; [2]
  Wild oats plant response rating: 0
Wild oat; [4]
  Plant response rating, Wild oats: 7
Wild oat; [5]
  Plant response rating, Wild oats: 7
Wild oat; [6]
  Wild oats plant response rating: 9
Wild oat; [8]
  Wild oats plant response rating: 10
bedstraw; [2]
  Bedstraw plant response rating: 9
bedstraw; [3]
  Bedstraw plant response rating: 9
bedstraw; Preemergence
  Plant response rating, Bedstraw: 8
bedstraw; [6]
  Bedstraw plant response rating: 9
bedstraw; [7]
  Bedstraw plant response rating: 9
bedstraw; [9]
  Bedstraw plant response rating: 10
soybean; [1]
  Soybean plant response rating: 3
soybean; [2]
  Soybean plant response rating: 4
soybean; [4]
  Plant response rating, Soybean: 4
soybean; [5]
  Plant response rating, Soybean: 0
soybean; [6]
  Soybean plant response rating: 3
soybean; [8]
  Soybean plant response rating: 8
crabgrass; [1]
  Crabgrass plant response rating: 6
crabgrass; [2]
  Crabgrass plant response rating: 9
crabgrass; [3]
  Crabgrass plant response rating: 8
crabgrass; [4]
  Plant response rating, Crabgrass: 9
crabgrass; [5]
  Plant response rating, Crabgrass: 7
crabgrass; [6]
  Crabgrass plant response rating: 9
crabgrass; [8]
  Crabgrass plant response rating: 10
cocklebur; [1]
  Cocklebur plant response rating: 3
cocklebur; [2]
  Cocklebur plant response rating: 3
cocklebur; [3]
  Cocklebur plant response rating: 3
cocklebur; [4]
  Plant response rating, Cocklebur: 5
cocklebur; [5]
  Plant response rating, Cocklebur: 0
cocklebur; [6]
  Cocklebur plant response rating: 0
cocklebur; [7]
  Cocklebur plant response rating: 2
cocklebur; [8]
  Cocklebur plant response rating: 2
corn; [1]
  Corn plant response rating: 2
corn; [2]
  Corn plant response rating: 2
corn; [3]
  Corn plant response rating: 2
corn; [4]
  Plant response rating, Corn: 6
corn; [5]
  Plant response rating, Corn: 0
corn; [6]
  Corn plant response rating: 5
corn; [8]
  Corn plant response rating: 8
Purple nutsedge; [1]
  Nutsedge plant response rating: 0
Purple nutsedge; [4]
  Plant response rating, Nutsedge: 2
Purple nutsedge; [5]
  Plant response rating, Nutsedge: 0
Purple nutsedge; [6]
  Nutsedge plant response rating: 8
Purple nutsedge; [8]
  Nutsedge plant response rating: 10
velvetleaf; [1]
  Velvetleaf plant response rating: 4
velvetleaf; [2]
  Velvetleaf plant response rating: 4
velvetleaf; [4]
  Plant response rating, Velvetleaf: 5
velvetleaf; [5]
  Plant response rating, Velvetleaf: 5
velvetleaf; [6]
  Velvetleaf plant response rating: 8
velvetleaf; [8]
  Velvetleaf plant response rating: 10
Surinam grass; [1]
  B. signalgrass plant response rating: 3
Surinam grass; [2]
  B. signalgrass plant response rating: 5
Surinam grass; Postemergence, Rate 250 g/ha, scale 0 to 10, 0 no effect, 10 complete control
  B. signalgrass plant response rating: 7
Surinam grass; [4]
  Plant response rating, B. signalgrass: 8
Surinam grass; [5]
  Plant response rating, B. signalgrass: 9
Surinam grass; [6]
  B. signalgrass plant response rating: 9
Surinam grass; [7]
  B. signalgrass plant response rating: 9
Surinam grass; [9]
  B. signalgrass plant response rating: 10
wheat; [1]
  Wheat plant response rating: 0
wheat; [4]
  Plant response rating, Wheat: 5
wheat; [5]
  Plant response rating, Wheat: 2
wheat; [6]
  Wheat plant response rating: 6
wheat; [8]
  Wheat plant response rating: 8
morningglory; [1]
  Morningglory plant response rating: 3
morningglory; [2]
  Morningglory plant response rating: 3
morningglory; [4]
  Plant response rating, Morningglory: 3
morningglory; [5]
  Plant response rating, Morningglory: 0
morningglory; [6]
  Morningglory plant response rating: 5
morningglory; [8]
  Morningglory plant response rating: 9
Giant foxtail; [1]
  Giant foxtail plant response rating: 7
Giant foxtail; [2]
  Giant foxtail plant response rating: 8
Giant foxtail; [4]
  Plant response rating, Giant foxtail: 9
Giant foxtail; [5]
  Plant response rating, Giant foxtail: 9
Giant foxtail; [6]
  Giant foxtail plant response rating: 10
Giant foxtail; [8]
  Giant foxtail plant response rating: 10
Sugar beet; [1]
  Sugarbeets plant response rating: 6
Sugar beet; [2]
  Sugarbeets plant response rating: 6
Sugar beet; [4]
  Plant response rating, Sugarbeets: 9
Sugar beet; [5]
  Plant response rating, Sugarbeets: 9
Sugar beet; [6]
  Sugarbeets plant response rating: 10
Sugar beet; [8]
  Sugarbeets plant response rating: 10
pigweed; [1]
  Redroot pigweed plant response rating: 7
pigweed; [2]
  Redroot pigweed plant response rating: 9
pigweed; [4]
  Plant response rating, Redroot pigweed: 10
pigweed; [5]
  Plant response rating, Redroot pigweed: 10
pigweed; [6]
  Redroot pigweed plant response rating: 10
pigweed; [8]
  Redroot pigweed plant response rating: 10
rape; [1]
  Rape plant response rating: 3
rape; [2]
  Rape plant response rating: 3
rape; [4]
  Plant response rating, Rape: 8
rape; [5]
  Plant response rating, Rape: 9
rape; [6]
  Rape plant response rating: 10
rape; [8]
  Rape plant response rating: 10

## COCn1c(=O)on(C(=O)N(c2ccc(F)cc2F)C(C)C)c1=O [Compound 503]
blackgrass; [5]
  Plant response rating, Blackgrass: 10
blackgrass; [6]
  Blackgrass plant response rating: 9
blackgrass; [7]
  Blackgrass plant response rating: 9
blackgrass; [8]
  Blackgrass plant response rating: 10
Wild oat; [5]
  Plant response rating, Wild oats: 6
Wild oat; [6]
  Wild oats plant response rating: 10
Wild oat; [8]
  Wild oats plant response rating: 9
bedstraw; Preemergence
  Plant response rating, Bedstraw: 5
bedstraw; [6]
  Bedstraw plant response rating: 5
bedstraw; [7]
  Bedstraw plant response rating: 6
bedstraw; [9]
  Bedstraw plant response rating: 10
soybean; [5]
  Plant response rating, Soybean: 2
soybean; [6]
  Soybean plant response rating: 3
soybean; [8]
  Soybean plant response rating: 7
crabgrass; [5]
  Plant response rating, Crabgrass: 8
crabgrass; [6]
  Crabgrass plant response rating: 8
crabgrass; [8]
  Crabgrass plant response rating: 9
cocklebur; [5]
  Plant response rating, Cocklebur: 0
cocklebur; [6]
  Cocklebur plant response rating: 0
cocklebur; [7]
  Cocklebur plant response rating: 0
cocklebur; [8]
  Cocklebur plant response rating: 3
corn; [5]
  Plant response rating, Corn: 3
corn; [6]
  Corn plant response rating: 5
corn; [8]
  Corn plant response rating: 9
Purple nutsedge; [5]
  Plant response rating, Nutsedge: 0
Purple nutsedge; [6]
  Nutsedge plant response rating: 0
Purple nutsedge; [8]
  Nutsedge plant response rating: 2
velvetleaf; [5]
  Plant response rating, Velvetleaf: 6
velvetleaf; [6]
  Velvetleaf plant response rating: 6
velvetleaf; [8]
  Velvetleaf plant response rating: 8
Surinam grass; [5]
  Plant response rating, B. signalgrass: 6
Surinam grass; [6]
  B. signalgrass plant response rating: 8
Surinam grass; [7]
  B. signalgrass plant response rating: 8
Surinam grass; [9]
  B. signalgrass plant response rating: 9
wheat; [5]
  Plant response rating, Wheat: 0
wheat; [6]
  Wheat plant response rating: 2
wheat; [8]
  Wheat plant response rating: 8
morningglory; [5]
  Plant response rating, Morningglory: 2
morningglory; [6]
  Morningglory plant response rating: 2
morningglory; [8]
  Morningglory plant response rating: 7
Giant foxtail; [5]
  Plant response rating, Giant foxtail: 9
Giant foxtail; [6]
  Giant foxtail plant response rating: 9
Giant foxtail; [8]
  Giant foxtail plant response rating: 10
Sugar beet; [5]
  Plant response rating, Sugarbeets: 2
Sugar beet; [6]
  Sugarbeets plant response rating: 6
Sugar beet; [8]
  Sugarbeets plant response rating: 9
pigweed; [5]
  Plant response rating, Redroot pigweed: 8
pigweed; [6]
  Redroot pigweed plant response rating: 10
pigweed; [8]
  Redroot pigweed plant response rating: 10
rape; [5]
  Plant response rating, Rape: 4
rape; [6]
  Rape plant response rating: 8
rape; [8]
  Rape plant response rating: 9
